What all share (type): biochemical
Experiment [1] deals with plasma TTR tetramer (controls and TTR V30M carriers). The following applies: human plasma (controls and V30M carriers pooled), 4 M urea IEF, relative to non-treated plasma of same donor. As for the experimental part: The preparations were subjected to native PAGE (5% acrylamide) and the gel band containing TTR was excised and applied to an IEF gel (5% acrylamide). IEF was carried out in semi-denaturing conditions (4 M urea), containing 5% (v/v) ampholytes pH 4-6.5 (GE Healthcare), at 1200 V for 6 hours. Proteins were stained with Coomassie Blue, the gels were scanned and subjected to densitometry using the ImageQuant program (HP Scanjet 4470c, Hewlett Packard). […] A total of 12 plasma samples (5 controls and 7 carriers TTR V30M) were analyzed in 3 IEF gels. For each treatment condition, a minimum of 4 samples from different donors were processed. The ratio of TTR tetramer over Total TTR (TTR tetramer+monomer) was calculated for each plasma sample and represented in FIG. 2.
The increase of the tetramer/total TTR ratio induced by the treatment with test compounds was pooled for all samples and represented in Table 4 as % of stabilization. These values were calculated after normalizing the tetramer/total TTR ratio obtained for each sample, with the ratio obtained for the non-treated plasma of the corresponding individual donor as described below: % stabilization=100×((ratio sample−ratio nt)/ratio nt). Where “ratio sample” is tetramer/total TTR ratio in the presence of compound; and “ratio nt” is tetramer/total TTR ratio of non-treated plasma from same donor.

Experiment [2] concerns the target T1, Recombinant V122I TTR protein (Homo sapiens, UniProt P02766, V142I).
T1 construct: made in house
Put plainly: End-point turbidity assay (72 h) with V122I TTR. Conditions: V122I 0.4 mg/mL. How it is done:
Recombinant V122I TTR protein, which is an amyloidogenic variation of human TTR associated with Familial Amyloid Cardiomyopathy (FAC), was produced by following the same procedure described for the Y78F variant used in Example 1. Plasmid DNA expressing the V122I mutant was prepared by site-directed mutagenesis as reported for Y78F in Dolado et al (supra). but using the following primers: 5′-[…]-3′ and 5′-[…]-3′.
This assay is used for TTR variants with lower amyloidegenicity than the Y78F variant when the kinetic turbidity assay is not sensitive enough for accurate measurements. The procedure followed to test the inhibitors by this end-point assay at 72 h is reported in Dolado et al, (supra). V122I TTR was incubated with the inhibitor under the same conditions described above for the kinetic turbidity assay (Example 1), using V122I protein at a concentration of 0.4 mg/mL and three different concentrations of inhibitor: […], corresponding to 0.5×[protein], 1×[protein], and 3×[protein]. After acid induction (addition of dilution buffer), samples were incubated without shaking for 72 h at 37° C. and then homogenized by mixing to resuspend any fibrils present. Turbidity was measured at 340 nm and normalized to amyloidogenesis in the absence of inhibitor.
The inhibitory potency of the tested compounds was evaluated as the percentage of absorvance reduction of the inhibitor-containing samples when compared with the inhibitor-free control sample.
% Fibril reduction=100×(1-turbidity sample/turbidity blank), where turbidity sample is the turbidity measured in the presence of inhibitor, and turbidity blank is that in the absence of inhibitor.

In experiment [3] the target is T2, Recombinant Y78F TTR protein (Homo sapiens, UniProt P02766, Y98F).
T2 construct: made in house
Put plainly: Kinetic turbidity assay of TTR fibril formation. The following applies: Y78F TTR 0.4 mg/mL, RA=100*B/(A+B).
Method: Stocks of compounds assayed as inhibitors were dissolved in DMSO (spectrophotometry grade from Sigma) at 1.5 mM concentration. Working solutions were prepared by diluting the stock solution 1:4 in H2O/DMSO (2:1). In all cases, DMSO concentration was adjusted to 5% (v/v) in the final reaction assay mixture.
The assay comprises two stages, one stage where the Y78F protein is incubated together with the inhibitor during 30 minutes, and a second stage where fibril formation is induced by a change in pH and absorbance is measured along 1.5 h. Briefly, the assay was performed as follows:
First, the following solutions were prepared: Protein Y78F stock: 4 mg/mL in 20 mM phosphate, 100 mM KCl, pH 7.6. Incubation buffer: 10 mM phosphate, 100 mM KCl, 1 mM EDTA, pH 7.6. Dilution buffer: 400 mM sodium acetate, 100 mM KCl, 1 mM EDTA, pH 4.2.
Incubation buffer was then added up to a volume of 100 μL. The plate was incubated at 37° C. in a thermostated microplate reader with orbital shaking 15 s every minute for 30 min. A 100 μL portion of dilution buffer was dispensed to each well, and the mixture was incubated at 37° C. with shaking (15 s every min) in the microplate reader. Absorbance at 340 nm was monitored for 1.5 h at 1 min intervals. Data were collected and analyzed using Microsoft Excel software. All assays were done in duplicate.
After following the general procedure indicated above, time-course curves were obtained, from which the initial rates of fibril formation (V0) were calculated as the slopes of the linear increase of absorbance. […] Data were fitted to equation (1): V0=A+B*e^−C[I] (1), where V0 is the initial rate of fibril formation (in absorbance units per hour, Abs*h^−1), and [I] is the concentration of the inhibitor (μM). Adjustable parameters are A (Abs*h^−1), residual aggregation rate at high concentration of inhibitor; B (Abs*h^−1), amplitude or maximum decrease of initial rate of fibril formation; and C (μM^−1), the exponential constant. A+B is equal to the initial rate of fibril formation under the assay conditions in the absence of inhibitor. […]

[4] abbreviates: inhibitor 0.5x[protein] (3.6 microM).
[5] abbreviates: inhibitor 1x[protein] (7.2 microM).
The mark [6] stands for this setting: inhibitor 3x[protein] (21.8 microM).

Turning to `Cc1ccc(C(=O)c2cc(O)c(O)c([N+](=O)[O-])c2)cc1` [Tolcapone, 3,4-dihydroxy-4′-methyl-5-nitrobenzophenone], the “% stabilization (average +/− sem) of TTR tetramer” value in experiment [1] is on record as 29.9 +/− 7.64%. Further, the “% Fibril Reduction” value in experiment [2] (setting [4]) was 79.3%; in experiment [2] (setting [5]), 84.3%; in experiment [2] (setting [6]) it was 100.0%. The “RA (%) percentage of amyloidosis reduction (reduction of fibril formation rate at high inhibitor concentration)” value in experiment [3] came to 85.8%.
For the molecule `O=C(O)c1cc(-c2ccc(F)cc2F)cc(I)c1O` [Iododiflunisal], the “% Fibril Reduction” value in experiment [2] (setting [4]) worked out at 83.2%; in experiment [2] (setting [5]), 85.0%; in experiment [2] (setting [6]) it was 88.2%. In experiment [3], the “RA (%) percentage of amyloidosis reduction (reduction of fibril formation rate at high inhibitor concentration)” value amounted to 99.8%.
For the molecule `O=C(O)c1ccc2nc(-c3cc(Cl)cc(Cl)c3)oc2c1` [Tafamidis, 2-(3,5-dichlorophenyl)-1,3-benzoxazole-6-carboxylic acid], the “% stabilization (average +/− sem) of TTR tetramer” value in experiment [1] was 16.4 +/− 5.49%. For the same molecule, in experiment [3], the “RA (%) percentage of amyloidosis reduction (reduction of fibril formation rate at high inhibitor concentration)” value was determined as 99%.
